Results reported in EP1094711B1, “METHODS FOR ERADICATION OF NANOBACTERIA” (Nanobac Oy, priority 1998, dated 2000).
Converted amounts (≈) assume the structure as drawn. Where two headings read alike, the source gives them in different places.

Tests used:
SF-nanobacteria = assay: Chemical disinfection of SF-nanobacteria; type: cell-based; design: key to Resistance of SF-nanobacteria to chemical disinfectants (survival) / partial or total detachment on exposure: +++: No effect; ++: Reduced survival; +: Markedly reduced survival; - : No survival; * = partial or total detachment on exposure; conditions: room temperature, survival after subculture compared to diluent only
Excerpt: The cultures were exposed to the disinfectants after removal of the culture medium. For the autoclaving, UV, microwave, and drying treatments, the medium was removed and an equal amount of PBS used instead. For the heat treatments, the SF-nanobacteria were harvested by scraping the culture vessel followed by centrifugation of the medium. The obtained pellet was suspended in PBS and used in the test. After treatments the SF-nanobacteria were subcultured in DMEM medium and the growth followed by light microscopy to see the adherence and typical mineralization.
The concentrations of the chemicals used were those commonly used for disinfection or as instructed by the manufacturer. The chemicals included 70% ethanol, 2% glutaraldehyde, 4% formaldehyde, 0.5% hypochlorite, 3% hydrogen peroxide, 1M hydrochloric acid (HCl), 1M sodium hydroxide (NaOH) , 1% sodium dodecyl sulfate (SDS), 1% Tween 80, 1 % Triton X-100, 3M guanidium-hydrochloride, 3M urea, 1% Virkon® (Antec International Ltd., Suffolk, England; 100% product contains 50% potassium persulfate, 5% sulfaminoic acid), 1.5% Erifenol® (Orion OY, Finland; 100% product contains <5% NaOH, <5% o-benzyl-p-chlorophenol, 5-15% p-chloro-m-cresol), 1% Klorilli® (Orion OY, Finland; 100% product contains sodium metasilicate, sodium N-chloro-p-toluenesulfonamide-3-hydrate and 20,000 ppm active chlorine), and 3% Buraton® (Schülke & Mayr, Germany; 100% product contains 4.5% formaldehyde, 6.8% glyoxal, 1.5% glyoxylic acid, 6% dimethylaurylbenzyl-ammonium chloride). The dilutions to be used were freshly prepared on the day of exposure in sterile distilled water. As a positive control, only diluent was used. Negative control contained only culture medium.
The SF-nanobacteria were exposed to the chemicals for 10 and 30 minutes at room temperature after removal of the culture medium. After exposure, the disinfectant solution was removed and fresh medium added (with a neutralization step in the case of HCl and NaOH). If any significant deattachment occurred, nanobacteria were recovered by centrifugation, and subcultured. The exposed serum-free cultures were passaged 1:10 after 48 hours and the growth was followed by light microscopy for three weeks.

nanobacteria = assay: Antibiotic sensitivity test by Minimal Inhibition Concentration (MIC), 96-well plates, absorbance at 650 nm; type: cell-based
Experimental: Antibiotic sensitivity tests were carried out by measuring Minimal Inhibition Concentration (MIC), a common practice in clinical microbiology.
The tests were performed in 96-well plates. DMEM (commercial cell culture medium) containing 10% gamma-irradiated fetal bovine serum (FBS)(dose about 3 Mrads; this treatment inactivates nanobacteria in the serum so that the basic medium is sterile) was used as the basic culture medium. These components are commercially available, e.g., from Gibco. The antibiotic stock solutions were sterile filtered through 0.2 micrometer filters. The stock solutions were then serially diluted (into the basal culture medium) to provide a final starting concentration of 0.5 mg/ml and 1:2 dilutions therefrom, unless otherwise specified. For each antibiotic three parallel tests were performed using all the antibiotic dilutions and, additionally, positive and negative control experiments. […] 100 µl of dilutions of the nanobacteria inoculum were added to all wells except the negative controls. The plates were incubated at mammalian cell culture conditions (37° Celsius, 5% carbon dioxide, 95% humid air). The absorbance values at 650 nm were recorded by using an ELISA reader at the start, and at 4, 8, 12, 14 days. […] Calculations were based on absorbance curves where absorbance was plotted against concentration of the antibiotic.

[1] = light or radiation study, 288 h; 90% inhibition, 12 day time point, DMEM with 10% gamma-irradiated FBS; read-out: MIC 90
[2] = light or radiation study, 288 h; read-out: MIC 50
[3] = 50% inhibition, 12 day time point, DMEM with 10% gamma-irradiated FBS

Compound	Resistance of SF-nanobacteria to chemical disinfectants (survival) (SF-nanobacteria; Exposure time 10 min)	Resistance of SF-nanobacteria to chemical disinfectants (survival) (SF-nanobacteria; Exposure time 30 min)	IC50 (nanobacteria; [2])	also measured
Triton X-100 [1 % Triton X-100]	+++	+++		
O=C1CN(/N=C/c2ccc([N+](=O)[O-])o2)C(=O)N1 [Nitrofurantoin]			0.6 µg/mL	IC90 (nanobacteria; [1]): 1.5 µg/mL (≈ 6.3 µM)
Neomycin				MIC 50 (nanobacteria; [3]): 16 µg/mL; MIC 90 (nanobacteria; 90% inhibition, 12 day time point, DMEM with 10% gamma-irradiated FBS): 30 µg/mL; antinanobacterial effect in the in vitro test (in words) (nanobacteria; in vitro MIC test): bacteriostatic effects at high antibiotic concentrations
NC(N)=O [3M Urea, urea]	+++	+++		
O=P(O)(O)C(Cl)(Cl)P(=O)(O)O [Chlodronate]			0.1 µg/mL	antinanobacterial effect in the in vitro test (in words) (nanobacteria; in vitro MIC test): bacteriocidic effect; IC90 (nanobacteria; [1]): 0.5 µg/mL (≈ 2.04 µM)
CN[C@H](CC(C)C)C(=O)N[C@H]1C(=O)N[C@@H](CC(N)=O)C(=O)N[C@H]2C(=O)N[C@H]3C(=O)N[C@H](C(=O)N[C@H](C(=O)O)c4cc(O)cc(O)c4-c4cc3ccc4O)[C@H](O)c3ccc(c(Cl)c3)Oc3cc2cc(c3O[C@@H]2O[C@H](CO)[C@@H](O)[C@H](O)[C@H]2O[C@H]2C[C@](C)(N)[C@H](O)[C@H](C)O2)Oc2ccc(cc2Cl)[C@H]1O [Vancomycin]			130 µg/mL	antinanobacterial effect in the in vitro test (in words) (nanobacteria; in vitro MIC test): effective bacteriostat; IC90 (nanobacteria; [1]): 250 µg/mL (≈ 173 µM)
O=CCCCC=O [2% glutaraldehyde, glutaraldehyde]	+++	+++		
Penicillin				MIC 50 (nanobacteria; [3]): >500 µg/mL
CO[C@H]1/C=C/O[C@@]2(C)Oc3c(C)c(O)c4c(O)c(c(/C=N/N5CCN(C)CC5)c(O)c4c3C2=O)NC(=O)/C(C)=C\C=C\[C@H](C)[C@H](O)[C@@H](C)[C@@H](O)[C@@H](C)[C@H](OC(C)=O)[C@@H]1C [Rifampicin]			> 500 µg/mL	
[Na+].[OH-] [1M NaOH, sodium hydroxide]	+++	+++		
CC(=O)OCC1=C(C(=O)O)N2C(=O)[C@@H](NC(=O)Cc3cccs3)[C@H]2SC1 [Cephalothin]			> 500 µg/mL	
O=C(O)CN(CCOCCOCCN(CC(=O)O)CC(=O)O)CC(=O)O [EGTA]				antinanobacterial effect in the in vitro test (in words) (nanobacteria; in vitro MIC test): antinanobacterial effects
CCO [70% ethanol, ethanol]	+++	+++		
CC(O)C(=O)O (centres unmarked) [lactic acid]				IC50 (nanobacteria; short chain organic acids tested later in culture tests; read-out: MIC50 values): 10 to 50 mM
hypochlorite [0.5% hypochlorite]	+++	+++		
[H]/N=C(/N)N[C@H]1[C@H](O)[C@@H](O)[C@H](O[C@@H]2O[C@@H](C)[C@](O)(C=O)[C@H]2O[C@@H]2O[C@@H](CO)[C@H](O)[C@@H](O)[C@@H]2NC)[C@@H](N/C(N)=N\[H])[C@@H]1O [Streptomycin]			> 500 µg/mL	antinanobacterial effect in the in vitro test (in words) (nanobacteria; in vitro MIC test): bacteriostatic effects at high antibiotic concentrations
Polymyxin B				MIC 50 (nanobacteria; [3]): >500 µg/mL
C=O [4% formaldehyde, formaldehyde]	+++	+++		
CN(C)[C@@H]1C(O)=C(C(N)=O)C(=O)[C@@]2(O)C(O)=C3C(=O)c4c(O)cccc4[C@@](C)(O)[C@H]3C[C@@H]12 [Tetracycline]				IC50 (nanobacteria; light or radiation study, 288 h, read-out: MIC 50): 0.3 µg/mL; IC90 (nanobacteria; light or radiation study, 288 h, read-out: MIC 90): 1.3 µg/mL (≈ 2.93 µM)
CC(=O)Oc1ccccc1C(=O)O [Acetylsalicylic acid]				IC50 (nanobacteria; 288 h; read-out: MIC 50): 500 µg/mL; antinanobacterial effect in the in vitro test (in words) (nanobacteria; in vitro MIC test): weak
NC(=O)c1cnccn1 [Pyrazinamide]			> 500 µg/mL	
